# According to the supplement of paper PMC13380429:
# Structures can show the parent of a compound that is named as a salt.
# Assays:
# Conditions in all cases: 72 h
# [1] = tested on: HepG2; assay: drug sensitivity score (DSS) for viability; higher = more toxic; extreme values may be limits of the assay
# [2] = tested on: Caco-2; assay: as above
# [3] = tested on: U2OS; assay: as above
# [4] = tested on: Calu-3; assay: as above
# [5] = tested on: Vero E6; assay: as above
# [6] = tested on: HepG2; assay: cell viability relative to DMSO; higher = less toxic
# [7] = tested on: Caco-2; assay: as above
# [8] = tested on: U2OS; assay: as above
# [9] = tested on: Calu-3; assay: as above
# [10] = tested on: Vero E6; assay: as above
# [11] = tested on: HepG2; assay: relative viability EC50 (midpoint between 100% and the lowest measured viability); higher = less toxic
# [12] = tested on: Caco-2; assay: as above
# [13] = tested on: U2OS; assay: as above
# [14] = tested on: Calu-3; assay: as above
# [15] = tested on: Vero E6; assay: as above
Structure (SMILES),drug sensitivity score [1],drug sensitivity score [2],drug sensitivity score [3],drug sensitivity score [4],drug sensitivity score [5],cell viability ([6]; 1 nM),cell viability ([6]; 10 nM),cell viability ([6]; 100 nM),cell viability ([6]; 1000 nM),cell viability ([6]; 10000 nM),cell viability ([7]; 1 nM),cell viability ([7]; 10 nM),cell viability ([7]; 100 nM),cell viability ([7]; 1000 nM),cell viability ([7]; 10000 nM),cell viability ([8]; 1 nM),cell viability ([8]; 10 nM),cell viability ([8]; 100 nM),cell viability ([8]; 1000 nM),cell viability ([8]; 10000 nM),cell viability ([9]; 1 nM),cell viability ([9]; 10 nM),cell viability ([9]; 100 nM),cell viability ([9]; 1000 nM),cell viability ([9]; 10000 nM),cell viability ([10]; 1 nM),cell viability ([10]; 10 nM),cell viability ([10]; 100 nM),cell viability ([10]; 1000 nM),cell viability ([10]; 10000 nM),relative viability EC50 [11],relative viability EC50 [12],relative viability EC50 [13],relative viability EC50 [14],relative viability EC50 [15]
O=C1C(c2ccccn2)=[N+]([O-])c2ccccc21 [PIT],0,0,0,0,0,99.8%,103%,96%,91.8%,97.9%,104%,95.1%,92.7%,92.1%,109%,97.6%,100%,99%,95.3%,101%,95.2%,106%,94.7%,93.9%,102%,102%,102%,97%,97.6%,97.5%,> 10 µM,> 10 µM,> 10 µM,> 10 µM,> 10 µM
CN(C)CC(=O)Nc1ccc2[nH]c(=O)c3ccccc3c2c1 [PJ-34],0,0,0,0,0,97.5%,99.3%,97.8%,103%,98.6%,91.5%,101%,99.3%,97.2%,104%,92.2%,102%,94%,94.6%,95.6%,95.5%,100%,96.2%,104%,98.5%,96.7%,93.2%,101%,100%,102%,> 10 µM,> 10 µM,> 10 µM,> 10 µM,> 10 µM
CCC(C)SSc1ncc[nH]1 (stereo not given) [PX-12],0,0,0.6,0,0,99.3%,104%,104%,98.3%,89.8%,90.8%,100%,102%,93.1%,97.7%,98%,96.4%,103%,97.5%,84.1%,106%,98%,110%,84%,104%,96.7%,97.8%,103%,97.5%,99.8%,> 10 µM,> 10 µM,> 10 µM,> 10 µM,> 10 µM
Cc1cc2nc3c(=O)[nH]c(=O)nc-3n(C)c2cc1C=O [Ro-08-2750],2.9,4.9,5.5,0.4,0,109%,105%,100%,109%,37.1%,92.4%,90%,96.4%,90.2%,40%,94.4%,99.2%,94.1%,97.8%,5.6%,104%,103%,96%,102%,81.9%,96.6%,94.3%,97.6%,92.5%,101%,3.78 µM,1.91 µM,3 µM,> 10 µM,> 10 µM
CCCCc1nc2cc(/C=C/C(=O)NO)ccc2n1CCN(CC)CC [SB-939],16.8,12.9,15.5,17.6,16.3,99.3%,109%,89%,15.7%,0%,98%,97.4%,98%,37.6%,0.6%,101%,105%,83.9%,27.9%,1.1%,95.4%,89.6%,65.5%,30.7%,7.8%,107%,99.1%,95.5%,13.4%,-0.1%,0.362 µM,0.766 µM,0.425 µM,0.195 µM,0.417 µM
Nc1nc2c(ccc3ccccc32)s1 [SKA-31],0,0,0,0,0,118%,109%,114%,110%,99.1%,99.6%,104%,97.5%,106%,93.9%,100%,103%,101%,102%,98.9%,98.3%,103%,101%,103%,96.7%,102%,100%,103%,100%,97.8%,> 10 µM,> 10 µM,> 10 µM,> 10 µM,> 10 µM
CC1CCN(C(c2ccc(F)cc2)c2ccc(C(C)C(=O)O)cc2-c2ccc(C(F)(F)F)cc2)CC1 (stereo not given) [TC-E-5006],0.4,0.3,0,0,0,97.5%,103%,99%,101%,81.6%,105%,99.5%,96.2%,89%,90.1%,102%,97.9%,101%,96.5%,93.2%,104%,92.3%,94.9%,96.2%,103%,97.4%,104%,95.4%,99.2%,100%,> 10 µM,> 10 µM,> 10 µM,> 10 µM,> 10 µM
COc1cccc(C2(O)CCCCC2CN(C)C)c1 (stereo not given) [TRAMADOL HYDROCHLORIDE],0,0,0,0,0,93.5%,96.8%,97.4%,89.8%,106%,93.9%,100%,96.2%,95.2%,98.3%,103%,105%,97.5%,99.3%,99.9%,106%,98.2%,115%,101%,96.2%,101%,103%,101%,97.4%,101%,> 10 µM,> 10 µM,> 10 µM,> 10 µM,> 10 µM
Nc1cccc(-c2cc3c(Oc4cccc(O)c4)ncnc3[nH]2)c1 [TWS-119],0,5,4.6,4.6,7,113%,107%,128%,104%,90.1%,99.3%,99.4%,98.2%,89.5%,40.4%,103%,108%,102%,96.6%,25.2%,108%,97.8%,86.2%,96.4%,25.7%,110%,101%,101%,82.2%,24.9%,> 10 µM,1.85 µM,2.82 µM,2.79 µM,1.59 µM
N#C/C(=C\c1cn(-c2ccccc2)c2ccccc12)C(=O)O [UK-5099],0,0,0,0,0,105%,101%,101%,97%,95.7%,98.1%,106%,100%,94%,104%,98.5%,98.8%,95.4%,103%,106%,106%,90.1%,106%,93.1%,106%,98.1%,102%,99.7%,99.8%,101%,> 10 µM,> 10 µM,> 10 µM,> 10 µM,> 10 µM
CCC(=O)Nc1cccc(Oc2nc(Nc3ccc(N4CCN(C)CC4)cc3OC)ncc2Cl)c1 [WZ4003],0,0,0,0.7,0,100%,94.3%,102%,90.9%,104%,99.3%,105%,102%,99.5%,89.3%,97.3%,103%,103%,105%,102%,97%,97.7%,94.8%,96.3%,82.5%,101%,100%,102%,96.2%,98.6%,> 10 µM,> 10 µM,> 10 µM,> 10 µM,> 10 µM
Cc1nc2ccc(Oc3ccc(F)cc3)cc2c(=O)n1C[C@H]1CCCN(C(C)C)C1 [YIL-781],0,0,0,0,0,101%,100%,97.4%,102%,90.7%,102%,93.5%,87.2%,97.5%,92.6%,104%,97.1%,98.6%,94.4%,94.7%,107%,88.2%,94.9%,97.7%,97.8%,93.8%,98.3%,96.4%,94.3%,88.3%,> 10 µM,> 10 µM,> 10 µM,> 10 µM,> 10 µM
COCCNC(=O)COc1ccc(OCCNC[C@H](O)COc2ccccc2)cc1 [ZD-7114],0,0,0,0,0,100%,106%,93.7%,104%,97.1%,95.5%,95.1%,94.7%,86.2%,103%,98.4%,94.5%,104%,102%,102%,99.1%,97.2%,106%,90%,108%,103%,101%,96.7%,104%,96.5%,> 10 µM,> 10 µM,> 10 µM,> 10 µM,> 10 µM
